One test has as its system E. coli ATCC 25922. Description: Antibacterial activity, minimum inhibitory concentration (MIC) in vitro, broth dilution. The format is cell-based. To be noted: Escherichia coli, ATCC25922, 5×10^5 cfu/mL, 35 °C, 18-24 hours. The protocol: (§1) The minimum inhibitory concentration (MIC) in vitro was determined according to CLSI's guidelines, and a minimal broth dilution method was used.
(§2) The test process was briefly described as follows: the tested compound was dissolved in DMSO to prepare a storage solution of […], and then prepared into 11 two-fold-diluted 100× high-concentration working liquids (a final concentration of the system was 64 μg/mL to 0.06 μg/mL) by DMSO. Stains (K. pneumoniae ATCC13883, K. pneumoniae ATCC51504 and E. coli ATCC 25922) frozen at −80 °C with glycerin were inoculated to a solid agar culture medium, placed into an incubator for culturing for 18-24 hours at 35 °C to finish the preparation work of the strains. A proper amount of solid plate culture was collected, re-suspended in normal saline, and uniformly mixed. The turbidity of the bacterial suspension was adjusted to a proper turbidity by a turbidity meter, containing about 1×10^8 cfu/mL of bacteria. Then, the turbidity-regulated bacterial suspension was diluted with a test culture medium (type: CAMHIIB, purchased from BD company) to a bacterial concentration of 5×10^5 cfu/mL, thus finishing the preparation of an inoculation solution. 198 μL of the inoculation solution was inoculated into a 96-well plate, and added with 2 μL 100× high concentration working liquid of the compound, then the 96-well plate was placed at 35 °C for culturing for 18-24 hours.
In general terms: Dilution methods test growth across graded concentrations, often in twofold steps.

A further test deals with K. pneumoniae ATCC13883. The description is as above. Type of test: cell-based. To be noted: Klebsiella pneumoniae, 5×10^5 cfu/mL, 35 °C, 18-24 hours. As to the method:
as §1, §2

Test [1] addresses T1, recombinant Pseudomonas aeruginosa LpxC (Pseudomonas aeruginosa, UniProt P47205).
T1 construct: purchased Signalway Antibody AP74647-2
T1 sequence (P47205 1-303): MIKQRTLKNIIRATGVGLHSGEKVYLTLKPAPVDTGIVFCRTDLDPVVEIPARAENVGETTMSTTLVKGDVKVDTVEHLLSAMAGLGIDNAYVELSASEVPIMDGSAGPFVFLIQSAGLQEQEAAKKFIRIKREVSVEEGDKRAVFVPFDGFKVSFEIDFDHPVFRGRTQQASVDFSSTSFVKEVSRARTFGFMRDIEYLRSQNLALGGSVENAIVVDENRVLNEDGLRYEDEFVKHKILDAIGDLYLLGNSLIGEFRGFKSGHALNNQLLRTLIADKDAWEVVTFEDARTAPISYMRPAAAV
As to the kind of experiment: Inhibition of enzymatic activity of recombinant Pseudomonas aeruginosa LpxC in vitro. Type of test: biochemical. To be noted: 5 nM LpxC; substrate UDP-3-O—(R-3-hydroxydecanoyl)-GlcNAc; 25 °C, 120 minutes; fluorescamine readout. The protocol: The following method was used to determine degrees of inhibition of the compounds of the present invention on the enzymatic activity of recombinant Pseudomonas aeruginosa LpxC in vitro.
The test process was briefly described as follows: the tested compound was first dissolved in DMSO to prepare a 10 mM storage solution. The reaction was carried out in a 96-well microplate. Firstly, 20 μL of recombinant Pseudomonas aeruginosa LpxC (purchased from Signalway Antibody, article number AP74647-2) was added into the wells, and the final concentrations were 5 nM respectively. 5 μL of the compound to be tested was added, diluted in 4-fold, with 8 concentration points, and the concentration range was 0.61-10000 nM. 5 μL of LpxC substrate UDP-3-O—(R-3-hydroxydecanoyl)-GlcNAc (purchased from Biosynth Carbosynth, article number mu75071) was added, wherein a final concentration of the substrate was […], and the substrate was incubated at 25 °C for 120 minutes. Subsequently, 20 μL of 2.0 mg/mL fluorescamine (purchased from sigma aldrich, article number F9015, wherein a solvent was dimethylformamide/acetonitrile (1:1)) was added to the reaction system, mixed evenly and reacted for 10 minutes. Finally, 50 μL of 200 mM sodium phosphate buffer solution (pH 8.0) was added to stop the reaction, and a microplate reader (BMG) was used for reading. An excitation wavelength and an emission wavelength were 390 nm and 495 nm respectively. Compared with the fluorescence intensity ratio of a control group (0.1% DMSO), the percentage inhibition rates of the compounds at each concentration were calculated, and the IC50 values of the compounds were obtained by performing nonlinear regression analysis with logarithmic value of the compound concentration-inhibition rate by GraphPad Prism 5 software, which can be seen in Table 1.

The subject of the next test is K. pneumoniae ATCC51504. Description: Antibacterial activity, minimum inhibitory concentration (MIC) in vitro, broth dilution. To be noted: Klebsiella pneumoniae, 5×10^5 cfu/mL, 35 °C, 18-24 hours. Type of test: cell-based. As to the method: as §1, §2

≈ marks a conversion by molar mass, not a printed value.

By MIC is commonly meant the smallest concentration in the dilution series that meets the test's criterion for growth inhibition. Low readings indicate greater potency, high ones weaker potency. As usually defined, the IC50 is the concentration at which inhibition is half-maximal. `C[C@H](O)c1nccn1Cc1cc(-c2ccc(C#CC3CC4(CCN(C(=O)CO)CC4)C3)cc2)on1` [Example 12, (S)-2-hydroxy-1-(2-((4-(3-((2-(1-hydroxyethyl)-1H-imidazol-1-yl)methyl)isoxazol-5-yl)phenyl)ethynyl)-7-azaspiro[3.5]nonan-7-yl)ethan-1-one]: the MIC in the test with E. coli ATCC 25922 was determined as 2 µg/mL (≈ 4.21 µM); in the test on K. pneumoniae ATCC13883 it was 4 µg/mL (≈ 8.43 µM). Besides, the IC50 in test [1] amounted to 4.06 nM.

In the case of `C[C@H](O)c1nccn1Cc1cc(-c2ccc(C#CC3CC4(CCN(CC(N)=O)CC4)C3)cc2)on1` [Example 13, (S)-2-(2-((4-(3-((2-(1-hydroxyethyl)-1H-imidazol-1-yl)methyl)isoxazol-5-yl)phenyl)ethynyl)-7-azaspiro[3.5]nonan-7-yl)acetamide], the MIC with E. coli ATCC 25922 and in the test with K. pneumoniae ATCC13883 was 1 µg/mL (≈ 2.11 µM) in each case. Further, in test [1], the IC50 was 5 nM.

Turning to `C[C@H](O)c1nccn1Cc1cc(-c2ccc(C#CC3=CCN(C(=O)CO)CC3)cc2)on1` [Example 63, (S)-2-hydroxy-1-(4-((4-(3-((2-(1-hydroxyethyl)-1H-imidazol-1-yl)methyl)isoxazol-5-yl)phenyl)ethynyl)-3,6-dihydropyridin-1(2H)-yl)ethan-1-one], the MIC against E. coli ATCC 25922 and in the test with K. pneumoniae ATCC51504 was 0.5 µg/mL (≈ 1.16 µM) each time. Besides, the IC50 in test [1] came out at 23.6 nM.

Take `C[C@H](O)c1nccn1Cc1cc(-c2ccc(C#CC3=CCN(C(=O)C4COCCO4)CC3)cc2)on1` (stereo partly drawn) [Example 64, (1,4-dioxan-2-yl)(4-((4-(3-((2-((S)-1-hydroxyethyl)-1H-imidazol-1-yl)methyl)isoxazol-5-yl)phenyl)ethynyl)-3,6-dihydropyridin-1(2H)-yl)methanone]: the MIC against E. coli ATCC 25922 is 1 µg/mL (≈ 2.05 µM); in the test on K. pneumoniae ATCC51504, 0.5 µg/mL (≈ 1.02 µM). Moreover, the IC50 in test [1] amounted to 19.1 nM.

Turning to `C[C@H](O)c1nccn1Cc1cc(-c2ccc(C#CC3=CCN(C(=O)C4CCCCO4)CC3)cc2)on1` (stereo partly drawn) [Example 65, (4-((4-(3-((2-((S)-1-hydroxyethyl)-1H-imidazol-1-yl)methyl)isoxazol-5-yl)phenyl)ethynyl)-3,6-dihydropyridin-1(2H)-yl)(tetrahydro-2H-pyran-2-yl)methanone], the MIC was found to be 2 µg/mL (≈ 4.11 µM) in the test with E. coli ATCC 25922 and 0.5 µg/mL (≈ 1.03 µM) against K. pneumoniae ATCC51504. Further, the IC50 in test [1] was determined as 15.1 nM.

For the compound `C[C@H](O)c1nccn1Cc1cc(-c2ccc(C#CC3=CCN(C(=O)C4CCOCC4)CC3)cc2)on1` [Example 66, (S)-(4-((4-(3-((2-(1-hydroxyethyl)-1H-imidazol-1-yl)methyl)isoxazol-5-yl)phenyl)ethynyl)-3,6-dihydropyridin-1(2H)-yl)(tetrahydro-2H-pyran-4-yl)methanone], the MIC was found to be 2 µg/mL (≈ 4.11 µM) in the test with E. coli ATCC 25922 and 1 µg/mL (≈ 2.06 µM) with K. pneumoniae ATCC51504. Moreover, in test [1], the IC50 came out at 18.5 nM.

Consider `COCCC(=O)N1CC=C(C#Cc2ccc(-c3cc(Cn4ccnc4[C@H](C)O)no3)cc2)CC1` [Example 67, (S)-1-(4-((4-(3-((2-(1-hydroxyethyl)-1H-imidazol-1-yl)methyl)isoxazol-5-yl)phenyl)ethynyl)-3,6-dihydropyridin-1(2H)-yl)-3-methoxypropan-1-one], for which the MIC with E. coli ATCC 25922 amounted to 1 µg/mL (≈ 2.17 µM); with K. pneumoniae ATCC51504, 0.5 µg/mL (≈ 1.09 µM). In addition, in test [1], the IC50 was determined as 22.9 nM.

For `COCC(=O)N1CC=C(C#Cc2ccc(-c3cc(Cn4ccnc4[C@H](C)O)no3)cc2)CC1` [Example 68, (S)-1-(4-((4-(3-((2-(1-hydroxyethyl)-1H-imidazol-1-yl)methyl)isoxazol-5-yl)phenyl)ethynyl)-3,6-dihydropyridin-1(2H)-yl)-2-methoxyethan-1-one], the minimum inhibitory concentration (MIC) in the test with E. coli ATCC 25922 and in the test on K. pneumoniae ATCC51504 was 1 µg/mL (≈ 2.24 µM) throughout. For the same compound, the IC50 in test [1] came out at 21.2 nM.

As for `C[C@H](O)c1nccn1Cc1cc(-c2ccc(C#CC3=CCN(C(=O)C4(O)CC4)CC3)cc2)on1` [Example 69, (S)-(1-hydroxycyclopropyl)(4-((4-(3-((2-(1-hydroxyethyl)-1H-imidazol-1-yl)methyl)isoxazol-5-yl)phenyl)ethynyl)-3,6-dihydropyridin-1(2H)-yl)methanone], the MIC against E. coli ATCC 25922 and against K. pneumoniae ATCC51504 was 2 µg/mL (≈ 4.36 µM) each time. In test [1], the IC50 is 20.8 nM.

The record behind these values is patent US20260365641A1, “Aromatic Acetylene Derivative, Preparation Method Therefor, And Use Thereof” (Zhejiang Hisun Pharmaceutical Co., Ltd., priority 2022, published 2026).
